# Assay results taken from US10143681B2, “Factor XIa inhibitors” (MERCK SHARP & DOHME CORP., priority 2016, dated 2018).
# Target: human Factor XIa (Homo sapiens (Human), UniProt P03951)
# Assay: Factor XIa Assay
# Format: biochemical
# Details: for IC50: human Factor XIa 0.04 nM, 30 min pre-incubation at 25° C., substrate GPR-AFC, read-out: FXIa IC50; for inhibition at 1 µM: @ 1000 nM compound, read-out: FXIa % Inh. @ 1000 nM
# Protocol: The effectiveness of a compound of the present invention as an inhibitor of Coagulation Factor XIa can be determined using a relevant purified serine protease, and an appropriate synthetic substrate. The rate of hydrolysis of the chromogenic or fluorogenic substrate by the relevant serine protease was measured both in the absence and presence of compounds of the present invention. Assays were conducted at room temperature or at 37° C. […] A decrease in the rate of fluorescence change in the presence of inhibitor is indicative of enzyme inhibition. Such methods are known to one skilled in the art. The results of this assay are expressed as the half-maximal inhibitory concentrations (IC50), or the inhibitory constant, Ki.
# Compounds were pre-incubated for 30 minutes at 25° C. with human (0.04 nM) Factor XIa in 50 mM HEPES buffer with 150 mM sodium chloride, 5 mM calcium chloride, 0.1% PEG 8000, pH 7.4. Factor XIa enzymatic activity was determined by addition of the substrate glycine-proline-arginine-7-amido-4-trifluoromethylcoumarin (GPR-AFC) and measurement of the fluorescence at 400/505 nm after a 60 minute incubation at 25° C. The % inhibition for each data point was calculated from the data and analyzed using the log (inhibitor) vs. response four parameters equation to determine the half-maximal inhibitory concentrations (IC50). The IC50 were converted to equilibrium inhibitory constants (Ki) using the Cheng-Prusoff equation.
# Sequence of human Factor XIa (P03951 388-625): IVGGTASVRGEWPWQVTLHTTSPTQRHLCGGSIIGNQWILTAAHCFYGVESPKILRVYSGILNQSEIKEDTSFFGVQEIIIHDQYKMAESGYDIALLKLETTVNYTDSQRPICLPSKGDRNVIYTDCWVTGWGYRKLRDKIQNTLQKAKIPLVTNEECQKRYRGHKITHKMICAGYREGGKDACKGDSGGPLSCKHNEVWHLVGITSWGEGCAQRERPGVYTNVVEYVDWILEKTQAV
# Sequence of human Factor XIa (P03951 19-387 partner): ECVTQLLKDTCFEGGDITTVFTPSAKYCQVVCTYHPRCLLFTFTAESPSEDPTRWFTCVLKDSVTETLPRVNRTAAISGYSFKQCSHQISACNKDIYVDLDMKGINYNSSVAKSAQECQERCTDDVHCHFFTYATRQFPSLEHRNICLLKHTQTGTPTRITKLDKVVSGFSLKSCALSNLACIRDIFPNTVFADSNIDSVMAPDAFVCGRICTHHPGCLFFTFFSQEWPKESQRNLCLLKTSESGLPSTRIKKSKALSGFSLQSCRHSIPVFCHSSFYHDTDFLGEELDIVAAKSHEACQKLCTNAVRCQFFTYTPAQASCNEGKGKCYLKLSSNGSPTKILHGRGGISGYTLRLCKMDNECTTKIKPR
Compound,IC50 [nM],inhibition at 1 µM [%]
"O=C(O)c1ccc(NC(=O)[C@@H](CC2CC2)c2ccc(-c3c(C(F)F)ccc(Cl)c3F)c[n+]2[O-])cc1 (mixture of isomers) [Example 22, (S)- and (R)-2-(1-((4-carboxyphenyl)amino)-3-cyclopropyl-1-oxopropan-2-yl)-5-(3-chloro-6-(difluoromethyl)-2-fluorophenyl)pyridine 1-oxide]",240,
"O=C(O)c1ccc(NC(=O)[C@H](CC2CC2)c2ccc(-c3c(OC(F)F)ccc(Cl)c3F)c[n+]2[O-])cc1 (single isomer, unassigned) [Example 1]",,47
"O=C(O)c1ccc(NC(=O)C(CC2CCC2)c2ccc(-c3c(OC(F)F)ccc(Cl)c3F)c[n+]2[O-])cc1 (single isomer, unassigned) [Example 14, (S)- or (R)-4-[(2-{5-[3-chloro-6-(difluoromethoxy)-2-fluorophenyl]-1-oxidopyridin-2-yl}-3-cyclobutylpropanoyl)amino] benzoic acid]",47,
"COC(=O)c1ccc(NC(=O)C(CC2CCC2)c2ccc(-c3c(C(F)F)ccc(Cl)c3F)c[n+]2[O-])cc1 (single isomer, unassigned) [Example 20, (S)- or (R)-methyl 4-[(2-{5-[3-chloro-6-(difluoromethyl)-2-fluorophenyl]-1-oxidopyridin-2-yl}-3-cyclobutylpropanoyl)amino]benzoate]",> 1000,13
"O=C(O)c1ccc(NC(=O)C(CC2CC2)c2ccc(-c3c(C(F)(F)F)ccc(Cl)c3F)c[n+]2[O-])cc1 (single isomer, unassigned) [Example 26, (S)- or (R)-2-(1-((4-carboxyphenyl)amino)-3-cyclopropyl-1-oxopropan-2-yl)-5-(3-chloro-2-fluoro-6-(trifluoromethyl)phenyl)pyridine 1-oxide]",> 1000,39
"C[C@]1(O)CC[C@@H](CC(C(=O)Nc2ccc(C(=O)O)cc2)c2ccc(-c3c(OC(F)F)ccc(Cl)c3F)c[n+]2[O-])CC1 (single isomer, unassigned) [Example 41, 2-(1-((4-carboxyphenyl)amino)-3-((1s,4s)-4-hydroxy-4-methylcyclohexyl)-1-oxopropan-2-yl)-5-(3-chloro-6-(difluoromethoxy)-2-fluorophenyl)pyridine 1-oxide]",> 1000,49
"C[C@]1(O)CC[C@@H](CC(C(=O)Nc2ccc(C(=O)O)cc2)c2ccc(-c3c(C(F)F)ccc(Cl)c3F)c[n+]2[O-])CC1 (single isomer, unassigned) [Example 44, 2-(1-((4-carboxyphenyl)amino)-3-((1s,4s)-4-hydroxy-4-methylcyclohexyl)-1-oxopropan-2-yl)-5-(3-chloro-6-(difluoromethyl)-2-fluorophenyl)pyridine 1-oxide]",299,
"CC(C1CC1)C(C(=O)Nc1ccc(C(=O)O)cc1)c1ccc(-c2c(OC(F)F)ccc(Cl)c2F)c[n+]1[O-] (single isomer, unassigned) [Example 57, 2-(1-((4-carboxyphenyl)amino)-3-cyclopropyl-1-oxobutan-2-yl)-5-(3-chloro-6-(difluoromethoxy)-2-fluorophenyl)pyridine 1-oxide]",> 1000,48
"CC1CC1C[C@H](C(=O)Nc1ccc(C(=O)O)cc1)c1ccc(-c2c(C(F)F)ccc(Cl)c2F)c[n+]1[O-] (single isomer, unassigned) [Example 61]",55,
"O=C(O)c1ccc(NC(=O)C(CC2CC2C(F)(F)F)c2ccc(-c3c(C(F)F)ccc(Cl)c3F)c[n+]2[O-])cc1 (single isomer, unassigned) [Example 86, 2-(1-((4-carboxyphenyl)amino)-1-oxo-3-(2-(trifluoromethyl)cyclopropyl)propan-2-yl)-5-(3-chloro-6-(difluoromethyl)-2-fluorophenyl)pyridine 1-oxide]",93.6,

# The remaining lines, values ahead:
IC50 [nM],inhibition at 1 µM [%],Compound
,47,"O=C(O)c1ccc(NC(=O)C(CC2CC(F)(F)C2)c2ccc(-c3c(OC(F)F)ccc(Cl)c3F)c[n+]2[O-])cc1 (racemic) [Example 49, (S)- and (R)-2-(1-((4-carboxyphenyl)amino)-3-(3,3-difluorocyclobutyl)-1-oxopropan-2-yl)-5-(3-chloro-6-(difluoromethoxy)-2-fluorophenyl)pyridine 1-oxide]"
> 1000,13,"COc1ccc(Cl)c(F)c1-c1ccc(C(CC2CC2)C(=O)Nc2ccc(C(=O)O)cc2)[n+]([O-])c1 (single isomer, unassigned) [Example 10, (S)- or (R)-4-({2-[5-(3-chloro-2-fluoro-6-methoxyphenyl)-1-oxidopyridin-2-yl]-3-cyclopropylpropanoyl}amino) benzoic acid]"
36,,"COc1ccc(Cl)c(F)c1-c1ccc(C(CC2CC2)C(=O)Nc2ccc(C(=O)O)cc2)[n+]([O-])c1 (single isomer, unassigned) [Example 11, (R)- or (S)-4-({2-[5-(3-chloro-2-fluoro-6-methoxyphenyl)-1-oxidopyridin-2-yl]-3-cyclopropylpropanoyl}amino) benzoic acid]"
83,,"COC(=O)c1ccc(NC(=O)C(CC2CCC2)c2ccc(-c3c(C(F)F)ccc(Cl)c3F)c[n+]2[O-])cc1 (single isomer, unassigned) [Example 21, (R)- or (S)-methyl 4-[(2-{5-[3-chloro-6-(difluoromethyl)-2-fluorophenyl]-1-oxidopyridin-2-yl}-3-cyclobutylpropanoyl)amino]benzoate]"
> 1000,33,"O=C(O)c1ccc(NC(=O)C(CC2CC2)c2ccc(-c3cc(Cl)ccc3C(F)(F)F)c[n+]2[O-])cc1 (single isomer, unassigned) [Example 24, (S)- or (R)-2-(1-((4-carboxyphenyl)amino)-3-cyclopropyl-1-oxopropan-2-yl)-5-(5-chloro-2-(trifluoromethyl)phenyl)pyridine 1-oxide]"
26,,"O=C(O)c1ccc(NC(=O)C(C[C@H]2CC[C@H](O)CC2)c2ccc(-c3c(C(F)F)ccc(Cl)c3F)c[n+]2[O-])cc1 (single isomer, unassigned) [Example 36, (S)- or (R)-2-(1-((4-carboxyphenyl)amino)-3-((1r,4r)-4-hydroxycyclohexyl)-1-oxopropan-2-yl)-5-(3-chloro-6-(difluoromethyl)-2-fluorophenyl)pyridine 1-oxide]"
227,,"C[C@]1(O)CC[C@H](CC(C(=O)Nc2ccc(C(=O)O)cc2)c2ccc(-c3c(OC(F)F)ccc(Cl)c3F)c[n+]2[O-])CC1 (single isomer, unassigned) [Example 42, 2-(1-((4-carboxyphenyl)amino)-3-((1r,4r)-4-hydroxy-4-methylcyclohexyl)-1-oxopropan-2-yl)-5-(3-chloro-6-(difluoromethoxy)-2-fluorophenyl)pyridine 1-oxide]"
128,,"C[C@]1(O)CC[C@H](CC(C(=O)Nc2ccc(C(=O)O)cc2)c2ccc(-c3c(C(F)F)ccc(Cl)c3F)c[n+]2[O-])CC1 (single isomer, unassigned) [Example 46, 2-(1-((4-carboxyphenyl)amino)-3-((1r,4r)-4-hydroxy-4-methylcyclohexyl)-1-oxopropan-2-yl)-5-(3-chloro-6-(difluoromethyl)-2-fluorophenyl)pyridine 1-oxide]"
155,,"CC1CC1C[C@H](C(=O)Nc1ccc(C(=O)O)cc1)c1ccc(-c2c(OC(F)F)ccc(Cl)c2F)c[n+]1[O-] (single isomer, unassigned) [Example 53]"
370,,"CC1CC1C[C@H](C(=O)Nc1ccc(C(=O)O)cc1)c1ccc(-c2c(OC(F)F)ccc(Cl)c2F)c[n+]1[O-] (single isomer, unassigned) [Example 54]"
334,,"CC(C1CC1)C(C(=O)Nc1ccc(C(=O)O)cc1)c1ccc(-c2c(OC(F)F)ccc(Cl)c2F)c[n+]1[O-] (single isomer, unassigned) [Example 58, 2-(1-((4-carboxyphenyl)amino)-3-cyclopropyl-1-oxobutan-2-yl)-5-(3-chloro-6-(difluoromethoxy)-2-fluorophenyl)pyridine 1-oxide]"
286,,"CC(C1CC1)C(C(=O)Nc1ccc(C(=O)O)cc1)c1ccc(-c2c(OC(F)F)ccc(Cl)c2F)c[n+]1[O-] (single isomer, unassigned) [Example 59, 2-(1-((4-carboxyphenyl)amino)-3-cyclopropyl-1-oxobutan-2-yl)-5-(3-chloro-6-(difluoromethoxy)-2-fluorophenyl)pyridine 1-oxide]"
62,,"CC(C1CC1)C(C(=O)Nc1ccc(C(=O)O)cc1)c1ccc(-c2c(OC(F)F)ccc(Cl)c2F)c[n+]1[O-] (single isomer, unassigned) [Example 60, 2-(1-((4-carboxyphenyl)amino)-3-cyclopropyl-1-oxobutan-2-yl)-5-(3-chloro-6-(difluoromethoxy)-2-fluorophenyl)pyridine 1-oxide]"
484,,"O=C(O)c1ccc(NC(=O)C(CC2CC(F)C2)c2ccc(-c3c(C(F)F)ccc(Cl)c3F)c[n+]2[O-])cc1 (single isomer, unassigned) [Example 80, 2-(1-((4-carboxyphenyl)amino)-3-(3-fluorocyclobutyl)-1-oxopropan-2-yl)-5-(3-chloro-6-(difluoromethyl)-2-fluorophenyl)pyridine 1-oxide]"
